According to patent publication US20060134738A1, “Gene expression inducing fusion protein and method for controlling gene expression Induction” (priority 2003, published 2006):

Legend:
Assay type in all cases: cell-based
[1] = tested on: farnesylation of R17-4G-CVLS; assay: LucF/LucR induction in HeLa clone with integrated R17-4G-CVLS, prenyltransferase inhibitors (FIG. 2A, 2B); details: for induction (quotient of LucF and LucR relative to the DMSO control): reporters pCRL138 and pCRL138-R17, FIG. 2A
Protocol: The nucleic acid encoding the R17-4G-CVLS protein is integrated into the genome of HeLa cells. The reporter plasmids pCRL138 and pCRL138-R17 are transiently transfected into this clone. The products that act on farnesylation of R17-4G-CVLS are then sought.
DMSO is the solvent in which the products (FTI 277 and GGTI 298) that are added to the culture medium are dissolved, and therefore represents an induction control.
The white rectangles represent the RNA which carries the R17 protein recognition sequence. The black rectangles represent the activities obtained under the same conditions with an RNA sequence that is similar but no longer carries the R17 recognition; it is therefore the negative control for the first construct.
The induction is represented by the quotient of the LucF and LucR values measured directly in the presence of an agent (FTI 277 or GGTI 298), relative to the DMSO control.

[2] = tested on: R17-4G-CAAX constructs (CVLS, CVLL, SVLS) in HeLa cells; assay: Translation activation in HeLa clones with integrated reporter, transiently transfected with R17-4G-CAAX constructs (FIG. 5); details: for activation of translation relative to the DMSO controls, R17-4G-SVLS: construct neither farnesylated nor geranylated; for activation of translation relative to the DMSO controls, R17-4G-CVLS: construct with farnesylations box; for activation of translation relative to the DMSO controls, R17-4G-CVLL: construct with geranylations box
Protocol: The pCRL138 or pCRL138-R17 reporter sequences are integrated into the genome of HeLa cells, and various R17-4G-CAAX constructs—where CAAX can be farnesylated, “CVLS”, or geranylgeranylated, “CVLL”, or no longer undergo any post-translational modifications of this type, “SVLS”,—are transiently transfected into these two clones.
After transfection, the cells are treated with FTI 277 (farnesyltransferase inhibitor) or GGTI 298 (geranyltransferase inhibitor).

[3] = tested on: proteins containing CVLS, CVLL or SVLS boxes in HeLa cells; assay: Subcellular localization of fusion proteins by fluorescence microscopy (FIGS. 6A and B); details: treatment 8 hours, immunofluorescence with anti-HA antibody
Source text: Moreover, the subcellular localization of proteins containing CVLS, CVLL or SVLS boxes was verified.
To do this, these boxes were fused with the YFP protein (yellow fluorescent protein), and all the fusion proteins were cloned with an HA sequence in the N-terminal position. The constructs were transiently transfected into HeLa cells, and the localization of the fusion proteins was followed by fluorescence microscopy after immunofluorescence with an anti-HA antibody (FIGS. 6A and B, in color).

HMGCoA-reductase = assay: LucF/LucR ratio in HeLa cells stably transfected with R17-4G-CVLS, screening of HMGCoA-reductase inhibitors (FIG. 3); details: for HMGCoA-reductase inhibiting activity (LucF/LucR ratio relative to a DMSO control): HeLa stably R17-4G-CVLS, reporters pCRL138 and pCRL138-R17, FIG. 3; for effect of mevalonate on the inhibitory activity (LucF/LucR ratio): in the presence of mevalonate, FIG. 3
Source text: HMGCoA-reductase, which synthesizes melavonate, is involved in isoprenylation, a post-translational modification of proteins such as 4G-CVLS.
In FIG. 3, the cells used during these tests are HeLa cells stably transfected with the plasmid encoding the R17-4G-CVLS fusion protein, and transiently transfected with the bicistronic reporter plasmids pCRL138 and pCRL138-R17.
The results are given in the form of the ratio of LucF/LucR activity in the presence of various pharmacological agents in the culture medium, relative to a DMSO control.
The model used also made it possible to screen potential HMGCoA-reductase inhibiting agents.

[4] = tested on: Farnesyl Pyrophosphate Synthase, also called FPP-synthase; assay: LucF/LucR ratio in HeLa cells stably transfected with R17-4G-CVLS, FPP-synthase inhibitors (FIG. 4); details: HeLa stably R17-4G-CVLS
Source text: This enzyme is required for the biosynthesis of farnesyl pyrophosphates.
In these tests represented in FIG. 4, the same cellular model as in b), stably transfected with R17-4G-CVLS, is used.

[5] = tested on: translation of the second cistron (LucF/LucR ratio), SKHep-1 human hepatoma cells; assay: LucF/LucR translation induction in transiently transfected SKHep-1 cells (FIG. 1); details: inhibitor 15 μM, 1 to 8 hours
Source text: 1. “Reporter” plasmids that make it possible to transcribe, in the cells, a bicistronic RNA encoding the LucR (Renilla luciferase) reporter protein in the first cistron and the LucF (firefly luciferase) reporter protein in the second cistron. The plasmids pCRL30-R17 or pCRL138-R17 also contain, in the intercistron space of the mRNA, a binding site for the capsid protein of the R17 bacteriophage (plasmid).
2. Effector plasmids which will be able to express, in the cells: • a fusion protein consisting of the R17 phage capsid protein fused with the C-terminal region of the eIF4G translation initiation factor, for the plasmid pCI R17-4G, • a fusion protein consisting of the R17 phage capsid protein fused with the C-terminal region of the eIF4G translation initiation factor and a farnesylation protein domain (of protein sequence CVLS), for the plasmid pCI R17-4G-CVLS.
The procedure is carried out in the following way. SKHep-1 human hepatoma cells are transiently transfected with cationic liposomes using 10 pmol of reporter plasmids and 5 pmol of activator plasmids per 1 million cells. […]
After lysis of the cells, the LucR and LucF activities are assayed using the “Dual-Luciferase (TM) reporter system” kit (Promega E1980) on a Berthold LB96B luminescence device. […]

[6] = tested on: p27Kip1 protein expression in CHO (Chinese hamster ovary) cells; assay: p27 expression by Western blotting in cotransfected CHO cells (FIG. 7); details: 8 hours
Source text: The reporter plasmid constructed in the context of this example makes it possible to transcribe, in mammalian cells in culture ex vivo, a bicistronic RNA encoding a truncated H2-Kk protein (mouse MHC class I molecule) as a marker for selection of the transfected cells, and encoding the p27Kip1 protein which is a cell cycle-inhibiting protein. The bicistronic RNA also contains, in the intercistron space, a binding site for the R17 bacteriophage capsid protein. This bicistronic RNA is very diagrammatically represented in FIG. 7.
The effector plasmid used is the one for expressing the R17-4G-CVLS fusion protein.
CHO (Chinese hamster ovary) cells are transiently transfected with cationic liposomes using 10 pmol of reporter plasmids and 5 pmol of activator plasmids per 1 million cells. Twelve hours after transfection, the cells are treated for 8 hours with the farnesyltransferase inhibitor (Cys-Val-3(2-naphthyl)Ala-Met; Sigma C4433) at a final concentration of 1 μM in the culture medium. […]
The expression of the p27 protein (ap27 line) is examined by Western blotting with a monoclonal antibody (Ref. 610241, BD Bioscience Pharmingen). The expression of the R17-4G-CVLS fusion protein (aHA line) is detected by Western blotting using a monoclonal antibody against the HA peptide (Eurogentec) located at the NH2-terminal end of the R17-4G-CVLS protein. […]

Compound | induction (quotient of LucF and LucR relative to the DMSO control) ([1]; HeLa, integrated R17-4G-CVLS) | activation of translation relative to the DMSO controls, R17-4G-SVLS [2] | activation of translation relative to the DMSO controls, R17-4G-CVLS [2] | activation of translation relative to the DMSO controls, R17-4G-CVLL [2] | HMGCoA-reductase inhibiting activity (LucF/LucR ratio relative to a DMSO control) (HMGCoA-reductase) | effect of mevalonate on the inhibitory activity (LucF/LucR ratio) (HMGCoA-reductase) | other results
COC(=O)[C@H](CCSC)NC(=O)c1ccc(NC[C@@H](N)CS)cc1-c1ccccc1 [FTI 277] | has an inducer effect | neither of the two molecules is capable of activation | capable of activating translation | only GGTI 298 is capable of activating translation | – | – | treatment time at which the maximum activation effect is obtained ([1]; HeLa, integrated R17-4G-CVLS, kinetics FIG. 2A): 8 h; reversibility of the activation effect (LucF/LucR activation ratio after removal of the product) ([1]; cells treated for 8 h with 1 μM, then product removed, FIG. 2B): reversible; relocalization of fusion proteins to the cytoplasm [3]: relocalizes only the YFP-CVLS and R17-4G-CVLS proteins to the cytoplasm
COC(=O)[C@H](CC(C)C)NC(=O)c1ccc(NC[C@@H](N)CS)cc1-c1cccc2ccccc12 [GGTI 298] | has no activation effect | neither of the two molecules is capable of activation | only FTI 277 is capable of activating translation | capable of activating translation | – | – | –
c1ccc(Cc2ccc(OCCN3CCCC3)cc2)cc1 [PBPE] | – | – | – | – | found to be an inhibitor of HMGCOA-reductase | compensated for by the presence of mevalonate | –
CC/C(=C(\c1ccccc1)c1ccc(OCCN(C)C)cc1)c1ccccc1 [tamoxifen] | – | – | – | – | inhibits this enzyme even at low concentrations | reversed or compensated for by mevalonate | farnesylation / FPP-synthase inhibition (LucF/LucR ratio) [4]: is also an FPP-synthase inhibitor
Cys-Val-3(2-naphthyl)Ala-Met [farnesyltransferase inhibitor] | – | – | – | – | – | – | level of translation induced by the expression of the R17-4G fusion protein under inhibitor treatment (LucF/LucR ratio) ([5]; SKHep-1, effector pCI R17-4G): not modulated; increase in translation induced by the R17-4G-CAAX inducer fusion protein under inhibitor treatment (LucF/LucR ratio) ([5]; SKHep-1, effector pCI R17-4G-CVLS): dependent on the time of treatment; amount of p27 (Western blotting) ([6]; CHO cotransfected with pR17-4G-CVLS and pK-R17-p27, inhibitor 1 μM): An increase in the amount of p27; amount of fusion protein produced (Western blotting, anti-HA) ([6]; CHO cotransfected, with or without inhibitor 1 μM): identical with or without treatment with the inhibitor
